Assay results reported in ChEMBL document CHEMBL1201862, “PubChem BioAssay data set” (2004).
The source made the active and inactive calls.

How the values were obtained:
[1] = target: Phosphomannomutase 2 (Homo sapiens, UniProt O15305); experiment: Counter screen SAR assay for PMM2 inhibitors via a fluorescence intensity assay. [Related pubchem assays (depositor defined):AID1545, AID1574]
[2] = target: T1, Mannose-6-phosphate isomerase (Homo sapiens, UniProt P34949); experiment: MPI enzyme activity inhibition – biochemical, fluorescence intensity, coupled assay, primary screen (AID 1209)
T1 sequence (P34949 whole entry): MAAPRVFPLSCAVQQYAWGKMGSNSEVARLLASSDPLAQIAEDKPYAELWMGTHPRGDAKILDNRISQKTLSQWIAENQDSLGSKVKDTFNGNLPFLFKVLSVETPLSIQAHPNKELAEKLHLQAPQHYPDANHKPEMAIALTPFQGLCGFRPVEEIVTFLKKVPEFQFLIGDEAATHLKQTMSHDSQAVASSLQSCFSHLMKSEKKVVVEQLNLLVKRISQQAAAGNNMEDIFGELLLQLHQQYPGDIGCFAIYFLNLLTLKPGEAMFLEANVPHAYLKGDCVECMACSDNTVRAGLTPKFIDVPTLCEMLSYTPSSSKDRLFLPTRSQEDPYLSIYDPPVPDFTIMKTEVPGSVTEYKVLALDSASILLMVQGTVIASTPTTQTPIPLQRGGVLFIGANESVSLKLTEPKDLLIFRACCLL

[3] = target: T1, Mannose-6-phosphate isomerase; experiment: phosphomannose isomerase inhibition – biochemical, fluorescence intensity, confirmation (AID 1535)
[4] = target: T2, Beta-adrenergic receptor kinase 1 (Homo sapiens, UniProt P25098); experiment: blockers of aptamer binding to GRK2 – biochemical, flow cytometry beads, FAM-aptamer, powder set 1, dose response (AID 588720)
T2 sequence (P25098 whole entry): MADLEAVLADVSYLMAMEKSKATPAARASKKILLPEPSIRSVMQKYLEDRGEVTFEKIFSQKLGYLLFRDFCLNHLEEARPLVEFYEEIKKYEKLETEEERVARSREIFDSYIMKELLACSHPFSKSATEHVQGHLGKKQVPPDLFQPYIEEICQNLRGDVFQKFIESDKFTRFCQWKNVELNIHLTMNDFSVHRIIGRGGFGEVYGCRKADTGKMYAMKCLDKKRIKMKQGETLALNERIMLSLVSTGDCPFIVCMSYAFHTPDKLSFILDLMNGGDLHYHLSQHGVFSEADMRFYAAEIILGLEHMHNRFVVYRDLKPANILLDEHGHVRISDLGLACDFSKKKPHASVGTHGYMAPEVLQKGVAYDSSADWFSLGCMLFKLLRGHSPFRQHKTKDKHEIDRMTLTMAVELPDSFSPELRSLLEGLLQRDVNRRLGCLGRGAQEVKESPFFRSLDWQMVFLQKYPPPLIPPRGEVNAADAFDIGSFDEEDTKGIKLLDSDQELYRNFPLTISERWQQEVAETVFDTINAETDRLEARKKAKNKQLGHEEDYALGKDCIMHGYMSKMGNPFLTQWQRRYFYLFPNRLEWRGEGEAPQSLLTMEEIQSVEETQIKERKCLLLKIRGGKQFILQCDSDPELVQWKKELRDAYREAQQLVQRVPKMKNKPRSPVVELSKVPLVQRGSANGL

[5] = target: Lysine-specific demethylase 4A (Homo sapiens, UniProt O75164); experiment: inhibition of JMJD2A H3K9me3 demethylation – biochemical, DELFIA europium, cherry-picked samples, selectivity assay for GASC-1 inhibitor project, dose response (AID 488840)
Chain of Lysine-specific demethylase 4A (O75164 whole entry): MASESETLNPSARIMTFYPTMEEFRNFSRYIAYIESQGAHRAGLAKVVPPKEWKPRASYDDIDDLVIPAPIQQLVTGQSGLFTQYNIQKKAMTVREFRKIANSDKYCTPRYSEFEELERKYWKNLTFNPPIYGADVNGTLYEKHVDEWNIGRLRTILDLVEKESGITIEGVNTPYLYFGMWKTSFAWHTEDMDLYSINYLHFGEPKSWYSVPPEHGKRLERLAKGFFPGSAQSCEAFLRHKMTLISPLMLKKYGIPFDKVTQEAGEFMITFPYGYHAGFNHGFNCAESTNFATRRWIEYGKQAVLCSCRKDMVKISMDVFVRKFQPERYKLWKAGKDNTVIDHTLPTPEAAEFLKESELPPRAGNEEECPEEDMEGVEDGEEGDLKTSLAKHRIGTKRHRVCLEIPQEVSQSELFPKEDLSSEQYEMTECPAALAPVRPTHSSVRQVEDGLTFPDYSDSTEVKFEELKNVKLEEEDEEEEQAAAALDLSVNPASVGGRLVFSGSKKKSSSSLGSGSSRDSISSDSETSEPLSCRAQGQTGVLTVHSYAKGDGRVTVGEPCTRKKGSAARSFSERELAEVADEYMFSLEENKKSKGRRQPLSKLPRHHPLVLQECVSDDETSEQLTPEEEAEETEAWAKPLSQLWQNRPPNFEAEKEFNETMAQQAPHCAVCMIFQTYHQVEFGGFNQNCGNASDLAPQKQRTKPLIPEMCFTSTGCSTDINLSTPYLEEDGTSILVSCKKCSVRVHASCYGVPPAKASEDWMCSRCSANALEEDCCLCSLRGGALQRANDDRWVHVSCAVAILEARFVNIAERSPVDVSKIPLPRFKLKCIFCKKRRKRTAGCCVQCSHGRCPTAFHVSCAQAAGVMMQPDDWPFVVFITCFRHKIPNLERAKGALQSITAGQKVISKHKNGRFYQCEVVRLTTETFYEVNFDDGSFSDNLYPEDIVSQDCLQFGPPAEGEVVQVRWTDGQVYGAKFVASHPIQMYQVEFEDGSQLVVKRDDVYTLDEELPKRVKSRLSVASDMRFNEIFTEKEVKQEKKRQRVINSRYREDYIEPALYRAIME

Chain of Phosphomannomutase 2 (O15305 whole entry): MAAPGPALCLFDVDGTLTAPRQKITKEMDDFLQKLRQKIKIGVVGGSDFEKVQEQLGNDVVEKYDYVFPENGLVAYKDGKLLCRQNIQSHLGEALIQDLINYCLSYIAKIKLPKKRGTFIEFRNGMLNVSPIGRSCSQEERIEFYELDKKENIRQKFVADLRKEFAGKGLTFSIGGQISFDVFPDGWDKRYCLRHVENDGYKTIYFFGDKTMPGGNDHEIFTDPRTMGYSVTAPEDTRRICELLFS

N#CC1=C2SCN(Cc3ccccc3)CN2C(=O)CC1c1ccc2c(c1)OCO2 (stereo not given)
IC50 [1]: > 100 µM (inactive) | IC50 [2]: 16 µM (active) | IC50 [3]: 36.9 µM (active)

Cc1cccc(CCNC(=O)CCS(=O)(=O)c2ccc(Br)cc2)c1
EC50 [4]: 22.3 µM (inactive)

O=c1n(Cc2ccccc2)c2cc(Cl)cnc2n1Cc1ccccc1
AC50 [5]: 9.18 µM (active)
